# “Also recorded” adds a separate entry of the source.
# Legend:
# MKN-28 cells = test: Cell proliferation assay, MKN-28; assay type: cell-based, Human; settings: CM 7, various concentrations; 4 days; serum-free medium; cell count; means of six determinations
# Procedure: Human gastric cancer cell line MKN-45 cells were from the Chinese Academy of Medical Sciences, Beijing, China. Human gastric cancer cell line MKN-28 cells, the human glioma cell line U87 cells, and MDCK cells were obtained from the American Type Culture Collection (ATCC). The MKN-45 and MKN-28 cells were grown under a humidified atmosphere of 5% CO2 at 37 °C in RPMI 1640 medium (Biological Industries, Israel), supplemented with 10% fetal bovine serum (FBS, Biological Industries, Israel), 2 mmol/L L-glutamine (Gibco, Life Technologies, Grand Island, NY, USA), 100 U/mL penicillin, and 100 μg/mL streptomycin (Invitrogen, Carlsbad, CA, USA). MDCK and U87 cells were cultured under a humidified atmosphere of 5% CO2 at 37 °C in Dulbecco’s modified Eagle’s medium (DMEM) (Gibco, Life Technologies, Grand Island, NY, USA), supplemented with 10% FBS, 2 mmol/L L-glutamine (Gibco, Life Technologies, Grand Island, NY, USA), 100 U/mL penicillin, and 100 μg/mL streptomycin (Invitrogen, Carlsbad, CA, USA).
# As described in the literature, MKN-45, MKN-28, and U87 cells were seeded into 48-well culture plates (6500 cells/well) and cultured overnight. […] After 4 days, the cells were trypsinized and counted by a cell counter. […]
# MKN-45 cells = test: Wound healing (migration) assay; assay type: cell-based, Human; settings: 1% FBS, 48 h, n = 3, dose-dependent
# Procedure: For the wound healing assay, MKN-45 cells (4 × 10^4 cells/well) were seeded in a 48-well culture plate. When the cells were almost completely fused, a sterile 200 μL pipette tip was used to generate a straight wound line across the monolayer cell. Then, the cells were washed with PBS and incubated in RPMI 1640 medium containing 1% FBS with CM 7 or Crizotinib at the indicated concentration for 48 h. The experiment was performed in triplicate, and the cell migration toward the gap was captured using the microscope.
# [1] = tested on: c-Met and its downstream signaling molecules in MKN-45 cells; test: Western blot of c-Met signaling, MKN-45; assay type: cell-based, Human; settings: 24 h
# Procedure: Western blot analysis was performed using an extraction buffer as described. MKN-45, MKN-28 and U87 cells were cultured in serum-free medium overnight, then treated with the indicated dose of peptide CM 7 for 24 h at 37 °C after stimulated without or with HGF for 15 min. Next, total cell lysates were separated by 12% SDS-polyacrylamide gel (SDS-PAGE) and transferred to polyvinylidene difluoride (PVDF) membranes. The PVDF membranes were probed with following primary antibodies: anti-phospho-Met (Tyr1234/1235, (Cell Signaling Technology, Beverly, MA, USA), anti-Met (Affinity, USA), anti-phospho-AKT (Ser473, (Affinity, USA)), anti-AKT (Affinity, USA), anti-phospho-Erk1/2 (Thr202/Tyr204, (Affinity, USA)), anti-Erk1/2 (Affinity, USA), anti-E-cadherin (WanleiBio, Shengyang, China), and anti-GAPDH (Multi Sciences, Hangzhou, China). Then, horseradish-peroxidase-conjugated anti-rabbit IgG was used as a second antibody. The immunoreactive proteins were exposed using an enhanced chemiluminescence detection reagent (WanleiBio, Shengyang, China). After sacrificing the mice and isolating the tumor tissue, Western blot was performed as previously described.
# MKN-45 tumor xenografts = test: MKN-45 xenograft antitumor activity in nude mice; assay type: in vivo, Human
# Procedure: (§1) Four-to-five-week-old female Balb/c nude mice, housed in specific pathogen-free conditions, were used to evaluate antitumor activity in vivo. All animal studies were performed according to the institutional ethical guidelines for animal care.
# (§2) MKN-45 cells at a density of 5 × 10^6 in 200 μL were injected subcutaneously into the flank of the mice. CM 7 (5, 10, or 20 mg/kg) was injected subcutaneously for each group twice a day for four weeks. As a positive control, Crizotinib (50 mg/kg) was given to tumor-bearing mice by gavage once a day for a total of 28 days. The tumor volume was measured with calipers in two dimensions: tumor volume = 1/2 × a × b^2, where a is the length of the tumor, and b is the width of the tumor. All of the mice were sacrificed on day 42, and the tumor tissue was isolated and weighed.
# [2] = Body weight / tolerability in tumor-bearing mice; assay type: in vivo, Balb/c nude mice; settings: each peptide group (5, 10, 20 mg/kg s.c. twice a day, 28 days)
# Procedure: as §1, §2
# Figure S1: The chemical structure, molecular mass, and purity of peptide FITC-CM 7. […] (C) The purity of peptide FITC-CM 7 was determined by high-performance liquid chromatography (HPLC) to be 97.3%. […] (C) The purity of peptide FITC-CM 7 was determined by HPLC to be 96.7%. Figure S3: The mean body weight of tumor-bearing mice treated daily for four weeks with vehicle (0.2% DMSO) or Crizotinib (50 mg/kg) by gavage, and the tested peptide CM 7 or vehicle (PBS) that was subcutaneously injected twice a day for four weeks was measured every other day during the study. […]
substance,measurement,setting,value
"DQIIANN [CM 7, Novel peptide DQIIANN targeting the tyrosine kinase receptor c-Met]",Inhibition of cell proliferation,MKN-28 cells,no effect
same,Inhibition of cell migration,MKN-45 cells,"moderate regulation; also recorded: significantly inhibit cell invasion (Figure 7A,C) and cell migration"
same,Expression of E-cadherin,[1],increase the expression of E-cadherin
same,"Phosphorylation of c-Met, Akt and Erk",[1]; dose-dependent,effectively inhibit
same,Inhibition of tumor growth versus vehicle (PBS),"MKN-45 tumor xenografts; 20 mg/kg s.c. twice a day, 28 days, n = 5–6",significantly inhibited tumor growth
same,Inhibition of tumor growth relative to Crizotinib,"MKN-45 tumor xenografts; CM 7 20 mg/kg s.c. twice a day vs Crizotinib 50 mg/kg by gavage daily, 28 days",weaker than the positive control group (Crizotinib)
same,Growth inhibition rate of tumor masses,"MKN-45 tumor xenografts; xenograft mouse model using MKN-45 cells, dose not printed with the value (5, 10, 20 mg/kg s.c. twice a day tested)",62%
same,Weight loss of mice,[2],no significant weight loss
same,Tolerability / toxicity,[2]; from body weight,well tolerated and slightly or nontoxic
